Reference: ChEMBL document CHEMBL4411303, “Synthesis of tetrazole derivatives bearing pyrrolidine scaffold and evaluation of their antifungal activity against Candida albicans” (Eur J Med Chem, 2019)
Values after ≈ are worked out from the molar mass of the structure shown. Active and inactive are the calls of the source. The rule behind the calls is not given here.

Key:
Candida albicans [1] = assay: Antifungal activity against Candida albicans ATCC 90028 assessed as planktonic growth inhibition at 0.32 uM after 48 hrs by M27-A3 protocol based method relative to control; format: functional; settings: ATCC 90028, 48 h, read-out: GI
Candida albicans [2] = assay: Antifungal activity against Candida albicans ATCC 90028 assessed as planktonic growth inhibition at 2.59 uM after 48 hrs by M27-A3 protocol based method relative to control; format: functional; settings: ATCC 90028, 48 h, read-out: GI
Candida albicans [3] = assay: Antifungal activity against Candida albicans ATCC 90028 assessed as planktonic growth inhibition at 0.08 uM after 48 hrs by M27-A3 protocol based method relative to control; format: functional; settings: ATCC 90028, 48 h, read-out: GI
Candida albicans [4] = assay: Antifungal activity against Candida albicans ATCC 90028 assessed as planktonic growth inhibition at 0.65 uM after 48 hrs by M27-A3 protocol based method relative to control; format: functional; settings: ATCC 90028, 48 h, read-out: GI
Candida albicans [5] = assay: Fungicidal activity against Candida albicans ATCC 90028 assessed as log reduction in fungal load incubated for 48 hrs followed by replating on sabouraud dextrose agar plate and measured after 48 hrs; format: functional
Candida albicans [6] = assay: Antifungal activity against Candida albicans ATCC 90028 assessed as planktonic growth inhibition at 10.37 uM after 48 hrs by M27-A3 protocol based method relative to control; format: functional; settings: ATCC 90028, 48 h, read-out: GI
Candida albicans [7] = assay: Antifungal activity against Candida albicans ATCC 90028 assessed as planktonic growth inhibition at 20.73 uM after 48 hrs by M27-A3 protocol based method relative to control; format: functional; settings: ATCC 90028, 48 h, read-out: GI
Candida albicans [8] = assay: Antifungal activity against Candida albicans ATCC 90028 assessed as planktonic growth inhibition at 1.3 uM after 48 hrs by M27-A3 protocol based method relative to control; format: functional; settings: ATCC 90028, 48 h, read-out: GI
Candida albicans [9] = assay: Antifungal activity against Candida albicans ATCC 90028 assessed as planktonic growth inhibition at 41.47 uM after 48 hrs by M27-A3 protocol based method relative to control; format: functional; settings: ATCC 90028, 48 h, read-out: GI
Candida albicans [10] = assay: Antifungal activity against Candida albicans ATCC 90028 assessed as planktonic growth inhibition at 0.16 uM after 48 hrs by M27-A3 protocol based method relative to control; format: functional; settings: ATCC 90028, 48 h, read-out: GI
Candida albicans [11] = assay: Antifungal activity against Candida albicans ATCC 90028 assessed as planktonic growth inhibition at 5.18 uM after 48 hrs by M27-A3 protocol based method relative to control; format: functional; settings: ATCC 90028, 48 h, read-out: GI
Candida albicans [12] = assay: Antifungal activity against Candida albicans ATCC 90028 assessed as planktonic growth inhibition at 10.95 uM after 48 hrs by M27-A3 protocol based method relative to control; format: functional; settings: ATCC 90028, 48 h, read-out: GI
Candida albicans [13] = assay: Antifungal activity against Candida albicans ATCC 90028 assessed as planktonic growth inhibition at 0.34 uM after 48 hrs by M27-A3 protocol based method relative to control; format: functional; settings: ATCC 90028, 48 h, read-out: GI
Candida albicans [14] = assay: Antifungal activity against Candida albicans ATCC 90028 assessed as planktonic growth inhibition at 0.68 uM after 48 hrs by M27-A3 protocol based method relative to control; format: functional; settings: ATCC 90028, 48 h, read-out: GI
Candida albicans [15] = assay: Antifungal activity against Candida albicans ATCC 90028 assessed as planktonic growth inhibition at 2.74 uM after 48 hrs by M27-A3 protocol based method relative to control; format: functional; settings: ATCC 90028, 48 h, read-out: GI
Candida albicans [16] = assay: Antifungal activity against Candida albicans ATCC 90028 assessed as planktonic growth inhibition at 1.37 uM after 48 hrs by M27-A3 protocol based method relative to control; format: functional; settings: ATCC 90028, 48 h, read-out: GI
Candida albicans [17] = assay: Antifungal activity against Candida albicans ATCC 90028 assessed as planktonic growth inhibition at 5.47 uM after 48 hrs by M27-A3 protocol based method relative to control; format: functional; settings: ATCC 90028, 48 h, read-out: GI
Candida albicans [18] = assay: Antifungal activity against Candida albicans ATCC 90028 assessed as planktonic growth inhibition at 0.17 uM after 48 hrs by M27-A3 protocol based method relative to control; format: functional; settings: ATCC 90028, 48 h, read-out: GI
Candida albicans [19] = assay: Antifungal activity against Candida albicans ATCC 90028 assessed as planktonic growth inhibition at 43.78 uM after 48 hrs by M27-A3 protocol based method relative to control; format: functional; settings: ATCC 90028, 48 h, read-out: GI
Candida albicans [20] = assay: Antifungal activity against Candida albicans ATCC 90028 assessed as planktonic growth inhibition at 21.89 uM after 48 hrs by M27-A3 protocol based method relative to control; format: functional; settings: ATCC 90028, 48 h, read-out: GI
Candida albicans [21] = assay: Antifungal activity against Candida albicans ATCC 90028 assessed as planktonic growth inhibition at 0.09 uM after 48 hrs by M27-A3 protocol based method relative to control; format: functional; settings: ATCC 90028, 48 h, read-out: GI
[22] = Toxicity in Galleria mellonella larvae assessed as cocoon formation at 41.47 uM measured after 48 hrs (reference value: 85 +/- 5%)
[23] = Toxicity in Galleria mellonella larvae assessed as survival rate at 41.47 uM measured after 18 hrs (reference value: 100%)
Candida albicans [24] = assay: Antifungal activity against Candida albicans ATCC 90028 assessed as reduction in cell growth after 48 to 72 hrs in presence of ergosterol by M27-A3 protocol based method; format: functional
[25] = Toxicity in Galleria mellonella larvae assessed as survival rate at 41.47 uM measured after 120 hrs (reference value: 100%)
[26] = Toxicity in Galleria mellonella larvae assessed as cocoon formation at 41.47 uM measured after 48 hrs (reference value: 100 +/- 0%)
Candida albicans [27] = assay: Antibiofilm activity against Candida albicans ATCC 90028 assessed as inhibition of biofilm formation after 24 hrs by XTT assay; format: functional, organism-based; settings: ATCC 90028, 24 h
Candida albicans [28] = assay: Inhibition of Candida albicans ATCC 90028 cell adhesion to human TR146 cells at reduction in cell adherence at 41.47 uM relative to control; format: functional; settings: ATCC 90028, TR146
Candida albicans [29] = assay: Cell cycle arrest in Candida albicans ATCC 90028 assessed as accumulation at G0/G1-phase by propidium iodide staining based flow cytometry; format: functional, organism-based
Candida albicans [30] = assay: Antifungal activity against Candida albicans ATCC 90028 assessed as reduction in cell growth after 48 to 72 hrs by M27-A3 protocol based method; format: functional
[31] = Toxicity in Galleria mellonella larvae assessed as movement melanization at 41.47 uM measured after 128 hrs (reference value: 0%)
Candida albicans [32] = assay: Induction of reactive oxygen species generation in Candida albicans ATCC 90028 assessed as ROS level at 41.47 uM after 18 hrs by DCFDA probe based flow cytometry (reference value: 0.3%); format: functional
[33] = Toxicity in Galleria mellonella larvae assessed as movement melanization at 41.47 uM measured after 48 hrs (reference value: 0%)
Candida albicans [34] = assay: Induction of Candida albicans ATCC 90028 internalization in mouse RAW264.7 cells assessed as reduction in fungus-induced cell damage by measuring live and early apoptotic cells at 41.47 uM after 2 hrs acridine orange/ethidium bromide staining based confocal scanning microscopic analysis; format: functional, organism-based
[35] = Toxicity in Galleria mellonella larvae assessed as movement melanization at 41.47 uM measured after 18 hrs (reference value: 0%)
[36] = Selectivity index, ratio of CC50 for African green monkey Vero cells to IC50 for Candida albicans ATCC 90028; format: toxicity; settings: read-out: Ratio CC50/IC50
[37] = Toxicity in Galleria mellonella larvae assessed as survival rate at 41.47 uM measured after 48 hrs (reference value: 100%)
[38] = Toxicity in Galleria mellonella larvae assessed as cocoon formation at 41.47 uM measured after 18 hrs (reference value: 60 +/- 20%)
Candida albicans [39] = assay: Antifungal activity against Candida albicans ATCC 90028 assessed as planktonic growth inhibition at 0.27 uM after 48 hrs by M27-A3 protocol based method relative to control; format: functional; settings: ATCC 90028, 48 h, read-out: GI
Candida albicans [40] = assay: Antibiofilm activity against Candida albicans ATCC 90028 assessed as inhibition of biofilm formation […] after 24 hrs by XTT assay relative to control; format: functional, organism-based; settings: ATCC 90028, 24 h

SMILES: Fc1ccc(C2CCCN2CCCn2nnc(-c3ccccc3Cl)n2)cc1 (configuration not stated)
- inhibition of growth at 0.32 µM (Candida albicans [1]): 98.9%
- inhibition of growth at 2.59 µM (Candida albicans [2]): 99.3%
- inhibition of growth at 0.08 µM (Candida albicans [3]): 98.6%
- inhibition of growth at 0.65 µM (Candida albicans [4]): 99%
- log(activity) (Candida albicans [5]): -0.4
- inhibition of growth at 10.37 µM (Candida albicans [6]): 99.4%
- inhibition of growth at 20.73 µM (Candida albicans [7]): 99.5%
- inhibition of growth at 1.3 µM (Candida albicans [8]): 99.2%
- inhibition of growth at 41.47 µM (Candida albicans [9]): 99.6%
- inhibition of growth at 0.16 µM (Candida albicans [10]): 98.7%
- inhibition of growth at 5.18 µM (Candida albicans [11]): 99.3%

SMILES: Cc1ccc(-c2nnn(CCCN3CCCC3c3ccc(F)cc3)n2)cc1 (configuration not stated)
- inhibition of growth at 10.95 µM (Candida albicans [12]): 99.4%
- inhibition of growth at 0.34 µM (Candida albicans [13]): 99.2%
- log(activity) (Candida albicans [5]): -0.3
- inhibition of growth at 0.68 µM (Candida albicans [14]): 99.1%
- inhibition of growth at 2.74 µM (Candida albicans [15]): 99.2%
- inhibition of growth at 1.37 µM (Candida albicans [16]): 99.2%
- inhibition of growth at 5.47 µM (Candida albicans [17]): 99%
- inhibition of growth at 0.17 µM (Candida albicans [18]): 99.1%
- inhibition of growth at 43.78 µM (Candida albicans [19]): 98.9%
- inhibition of growth at 21.89 µM (Candida albicans [20]): 98.7%
- inhibition of growth at 0.09 µM (Candida albicans [21]): 99.1%

SMILES: Fc1ccc(C2CCCN2CCCn2nnc(-c3ccc(Cl)cc3)n2)cc1 (configuration not stated)
- inhibition of growth at 0.32 µM (Candida albicans [1]): 99.4%
- inhibition of growth at 2.59 µM (Candida albicans [2]): 99.5%
- Activity [22]: 80%
- survival at 18 h, 41.47 µM [23]: 100%
- inhibition of growth at 0.08 µM (Candida albicans [3]): 99.4%
- MIC (Candida albicans [24]): 20.7 µM
- inhibition of growth at 0.65 µM (Candida albicans [4]): 99.4%
- survival at 120 h, 41.47 µM [25]: 83%
- Activity [26]: 80%
- log(activity) (Candida albicans [5]): -0.2
- IC50 (Candida albicans [27]): 10.4 µM
- inhibition at 41.47 µM (Candida albicans [28]): > 95%
- Activity (Candida albicans [29]): Active
- MIC (Candida albicans [30]): 10.4 µM (≈ 4 µg/mL)
- Activity [31]: 13%
- Activity (Candida albicans [32]): 12 - 16%
- inhibition of growth at 10.37 µM (Candida albicans [6]): 99.1%
- Activity [33]: 0%
- Activity (Candida albicans [34]): Active
- inhibition of growth at 20.73 µM (Candida albicans [7]): 98.9%
- inhibition of growth at 1.3 µM (Candida albicans [8]): 99.2%
- Activity [35]: 0%
- selectivity ratio [36]: 2
- inhibition of growth at 41.47 µM (Candida albicans [9]): 99%
- survival at 48 h, 41.47 µM [37]: 100%
- Activity [38]: 60%
- inhibition of growth at 0.16 µM (Candida albicans [10]): 99.4%
- inhibition of growth at 5.18 µM (Candida albicans [11]): 99.4%

SMILES: C[C@@H]1[C@H](O)[C@@H](C)/C=C/C=C/C=C/C=C/C=C/C=C/C=C/[C@H](O[C@@H]2O[C@H](C)[C@@H](O)[C@H](N)[C@@H]2O)C[C@@H]2O[C@](O)(C[C@@H](O)C[C@@H](O)[C@H](O)CC[C@@H](O)C[C@@H](O)CC(=O)O[C@H]1C)C[C@H](O)[C@H]2C(=O)O [AMPHOTERICIN B]
- inhibition of growth at 0.27 µM (Candida albicans [39]): 100%
- IC50 (Candida albicans [40]): 100 µM
